Assay results from US20210047653A1, “COMPOSITIONS AND METHODS FOR REGULATING A BIOLOGICAL PROCESS” (The University of Memphis Research Foundation, priority 2018, published 2021).

Tested on: endogenous BMP-2
Assay: CRISPR activation of endogenous BMP-2, qPCR in transfected HEK-293T cells
Format: cell-based, human
Settings: qPCR 24 hours after transfection with constitutively-expressed dCas9-VPR, normalized to HPRT
Method: HEK-293T cells were transfected with constitutively-expressed dCas9-VPR (Addgene #63798) and gRNA-expressing plasmids (Addgene #41824, sequences targeting the 150 bp region of the transcription start site of the endogenous BMP-2 was cloned into the vector; gRNA2 seq: […], gRNA3 seq: […], GFP seq:). After 24 hours, BMP-2 induction was measured by qPCR, following manufacturer protocols. Groups of HEK-293T cells tested were: Untransfected (UT), dCas9-VPR (VPR), GFP, gRNA2, and gRNA3. All groups were normalized to Hypoxanthine-guanine phosphoribosyltransferase (HPRT) expression (FIG. 27). Untransfected, dCas9-VPR, gRNA2, and gRNA3 groups were compared to GFP to elucidate increase in expression levels (FIG. 28).

| Substance | induction of endogenous BMP-2 expression compared to GFP group [fold] |
| --- | --- |
| gRNA2: gRNA-expressing plasmid targeting the 150 bp region of the transcription start site of endogenous BMP-2; seq GGCGAGCCGCGCCGCGAAGG (expressed from plasmid) | 112 |
| gRNA3: gRNA-expressing plasmid targeting the 150 bp region of the transcription start site of endogenous BMP-2; seq GCTCGCCGGGGATCCCCGAG (expressed from plasmid) | 77 |
